Data: PubChem BioAssay AID328 (DTP/NCI, 2004)
“And” between values parts separate entries of the source, which are not always exact repeats. Equal values may be shown once. Inconclusive results and toxic doses are left out.

Tested on: BDF1 mice, P388 leukemia ip, median survival T/C
Test: NCI In Vivo Anticancer Drug Screen. Data for tumor model P388 Leukemia (intraperitoneal) in B6D2F1 (BDF1) mice
Settings: endpoint: median survival time, higher = longer survival
In short: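 Each value expresses how treatment altered survival: treated-mouse outcome over vehicle-mouse outcome, both groups bearing the transplanted tumour.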

[1] = dose: 50.0 mg/kg/injection, schedule: Q01DX009 (ip), vehicle: saline with Tween-80
[2] = dose: 100.0 mg/kg/injection, schedule: Q01DX009 (ip), vehicle: saline with Tween-80
[3] = dose: 200.0 mg/kg/injection, schedule: Q01DX009 (ip), vehicle: saline with Tween-80
[4] = dose: 50.0 mg/kg/injection, schedule: Q04DX003 (ip), vehicle: saline with Tween-80
[5] = dose: 100.0 mg/kg/injection, schedule: Q04DX003 (ip), vehicle: saline with Tween-80
[6] = dose: 200.0 mg/kg/injection, schedule: Q04DX003 (ip), vehicle: saline with Tween-80
[7] = dose: 6.25 mg/kg/injection, schedule: Q01DX009 (ip), vehicle: saline
[8] = dose: 100.0 mg/kg/injection, schedule: Q04DX003 (ip), vehicle: Klucel (hydroxypropylcellulose) (HPC)
[9] = dose: 200.0 mg/kg/injection, schedule: Q04DX003 (ip), vehicle: Klucel (hydroxypropylcellulose) (HPC)
[10] = dose: 25.0 mg/kg/injection, schedule: Q01DX009 (ip), vehicle: saline
[11] = dose: 50.0 mg/kg/injection, schedule: Q01DX009 (ip), vehicle: Klucel (hydroxypropylcellulose) (HPC)
[12] = dose: 50.0 mg/kg/injection, schedule: Q01DX009 (ip), vehicle: saline
[13] = dose: 50.0 mg/kg/injection, schedule: Q04DX003 (ip), vehicle: Klucel (hydroxypropylcellulose) (HPC)
[14] = dose: 100.0 mg/kg/injection, schedule: Q01DX009 (ip), vehicle: Klucel (hydroxypropylcellulose) (HPC)
[15] = dose: 100.0 mg/kg/injection, schedule: Q01DX009 (ip), vehicle: saline
[16] = dose: 200.0 mg/kg/injection, schedule: Q04DX003 (ip), vehicle: saline
[17] = dose: 400.0 mg/kg/injection, schedule: Q04DX003 (ip), vehicle: saline
[18] = dose: 200.0 mg/kg/injection, schedule: Q01DX009 (ip), vehicle: saline
[19] = dose: 400.0 mg/kg/injection, schedule: Q04DX003 (ip), vehicle: saline with Tween-80
[20] = dose: 400.0 mg/kg/injection, schedule: Q01DX009 (ip), vehicle: saline with Tween-80
[21] = dose: 6.25 mg/kg/injection, schedule: Q04DX003 (ip), vehicle: saline
[22] = dose: 12.5 mg/kg/injection, schedule: Q04DX003 (ip), vehicle: saline

O=C1/C(=C/c2ccccc2O)SC(=S)N1CCCN1CCOCC1
T/C [1]: 95 % of control | T/C [2]: 100 % of control | T/C [3]: 90 % of control

CCCN=C(N)c1ccc(NC(=O)c2ccc(C(=O)Nc3ccc(C(N)=NCCC)cc3)cc2)cc1
T/C (dose: 0.5 mg/kg/injection, schedule: Q04DX003 (ip), vehicle: saline with Tween-80): 115 % of control | T/C (dose: 1.0 mg/kg/injection, schedule: Q04DX003 (ip), vehicle: saline with Tween-80): 120 % of control | T/C (dose: 14.0 mg/kg/injection, schedule: Q04DX003 (ip), vehicle: saline with Tween-80): 163 % of control | T/C (dose: 21.0 mg/kg/injection, schedule: Q04DX003 (ip), vehicle: saline with Tween-80): 163 % of control | T/C (dose: 33.0 mg/kg/injection, schedule: Q04DX003 (ip), vehicle: saline with Tween-80): 159 % of control and 200 % of control | T/C [4]: 172 % of control and 204 % of control | T/C (dose: 75.0 mg/kg/injection, schedule: Q04DX003 (ip), vehicle: saline with Tween-80): 159 % of control | T/C [5]: 190 % of control | T/C [6]: 118 % of control

Cc1cccc2cc3cccc[n+]3cc12
T/C (dose: 1.56 mg/kg/injection, schedule: Q01DX009 (ip), vehicle: saline): 104 % of control | T/C (dose: 3.12 mg/kg/injection, schedule: Q01DX009 (ip), vehicle: saline): 104 % of control | T/C [7]: 109 % of control | T/C (dose: 6.75 mg/kg/injection, schedule: Q04DX003 (ip), vehicle: saline): 105 % of control | T/C (dose: 9.2 mg/kg/injection, schedule: Q01DX009 (ip), vehicle: saline): 109 % of control | T/C (dose: 13.5 mg/kg/injection, schedule: Q04DX003 (ip), vehicle: saline): 90 % of control

CCC(CCC(C)C1CCC2C3CC=C4CC(OC5OC(CO)C(O)C(O)C5O)CCC4(C)C3CCC12C)C(C)C (stereo unspecified)
T/C [8]: 95 % of control | T/C [9]: 95 % of control

CC(C)C1C(=O)N2CCCC2C2(O)OC(NC(=O)C3C=C4c5cccc6[nH]cc(c56)CC4N(C)C3)(C(C)C)C(=O)N12 (stereo unspecified)
T/C (dose: 12.5 mg/kg/injection, schedule: Q01DX009 (ip), vehicle: Klucel (hydroxypropylcellulose) (HPC)): 109 % of control | T/C [10]: 115 % of control | T/C (dose: 25.0 mg/kg/injection, schedule: Q04DX003 (ip), vehicle: Klucel (hydroxypropylcellulose) (HPC)): 91 % of control | T/C [11]: 109 % of control | T/C [12]: 110 % of control | T/C [13]: 91 % of control | T/C [14]: 118 % of control | T/C [15]: 109 % of control and 120 % of control | T/C [8]: 104 % of control | T/C [9]: 100 % of control | T/C [16]: 120 % of control | T/C [17]: 100 % of control

NC(=S)c1nn(C2OC(CO)C(O)C2O)c2ncnc(N)c12 (stereo unspecified)
T/C (dose: 0.37 mg/kg/injection, schedule: Q01DX009 (ip), vehicle: saline): 111 % of control | T/C (dose: 0.75 mg/kg/injection, schedule: Q01DX009 (ip), vehicle: saline): 116 % of control

CC#CCOCC1CN(C)C(=O)O1 (stereo unspecified)
T/C [10]: 95 % of control | T/C [12]: 100 % of control | T/C (dose: 50.0 mg/kg/injection, schedule: Q04DX003 (ip), vehicle: saline): 100 % of control | T/C [15]: 109 % of control | T/C [18]: 95 % of control | T/C [16]: 91 % of control | T/C [17]: 87 % of control

SCc1ccccn1
T/C (dose: 62.5 mg/kg/injection, schedule: Q01DX010 (ip), vehicle: carboxymethylcellulose (CMC)): 110 % of control | T/C (dose: 125.0 mg/kg/injection, schedule: Q01DX010 (ip), vehicle: carboxymethylcellulose (CMC)): 110 % of control | T/C (dose: 250.0 mg/kg/injection, schedule: Q01DX010 (ip), vehicle: carboxymethylcellulose (CMC)): 120 % of control

CCCC#CCOCC1CO1 (stereo unspecified)
T/C [2]: 116 % of control | T/C [5]: 100 % of control | T/C [3]: 120 % of control | T/C [6]: 100 % of control | T/C [19]: 95 % of control

Cc1cc(C)cc(NC(=O)c2ccccc2N)c1
T/C [2]: 95 % of control | T/C [5]: 109 % of control | T/C [3]: 95 % of control | T/C [6]: 90 % of control | T/C [20]: 104 % of control | T/C [19]: 100 % of control

COc1ccc(OP2OCC(C)O2)cc1 (stereo unspecified)
T/C [1]: 103 % of control | T/C [2]: 102 % of control | T/C [3]: 102 % of control

COC(=O)CCCc1c[nH]c2ccccc12
T/C (dose: 100.0 mg/kg/injection, schedule: Q01DX009 (ip), vehicle: other): 103 % of control | T/C (dose: 200.0 mg/kg/injection, schedule: Q01DX009 (ip), vehicle: other): 94 % of control | T/C (dose: 400.0 mg/kg/injection, schedule: Q01DX009 (ip), vehicle: other): 86 % of control

c1ccc2n[se]nc2c1
T/C (dose: 1.56 mg/kg/injection, schedule: Q04DX003 (ip), vehicle: saline): 108 % of control | T/C (dose: 3.13 mg/kg/injection, schedule: Q04DX003 (ip), vehicle: saline): 108 % of control and 109 % of control | T/C [21]: 106 % of control and 109 % of control | T/C [22]: 104 % of control

C/C=C/CCCCCCCC(=O)OCCCC
T/C [2]: 109 % of control | T/C [5]: 110 % of control | T/C [3]: 95 % of control | T/C [6]: 105 % of control | T/C [20]: 113 % of control | T/C [19]: 120 % of control

CCN(CC)c1ccc(N=Cc2ccccc2S(=O)(=O)O)cc1
T/C [7]: 100 % of control | T/C [21]: 104 % of control | T/C (dose: 12.5 mg/kg/injection, schedule: Q01DX009 (ip), vehicle: saline): 100 % of control | T/C [22]: 109 % of control | T/C [10]: 100 % of control | T/C (dose: 25.0 mg/kg/injection, schedule: Q04DX003 (ip), vehicle: saline): 104 % of control

CC/C(C)=N/Nc1nncn2c1cc1ccccc12
T/C [1]: 94 % of control | T/C [2]: 100 % of control | T/C [3]: 97 % of control

FC(F)(F)C(F)(F)c1nc2nc(Cl)c(Cl)nc2[nH]1
T/C (dose: 25.0 mg/kg/injection, schedule: Q01DX009 (ip), vehicle: other): 100 % of control | T/C (dose: 50.0 mg/kg/injection, schedule: Q01DX009 (ip), vehicle: other): 114 % of control

CCOC(=O)C(=O)c1c[nH]c2ccccc12
T/C [4]: 90 % of control | T/C [14]: 109 % of control | T/C [5]: 104 % of control | T/C (dose: 200.0 mg/kg/injection, schedule: Q01DX009 (ip), vehicle: Klucel (hydroxypropylcellulose) (HPC)): 90 % of control | T/C [6]: 100 % of control | T/C (dose: 400.0 mg/kg/injection, schedule: Q01DX009 (ip), vehicle: Klucel (hydroxypropylcellulose) (HPC)): 109 % of control

CC(=O)N(N=Nc1ccccc1)c1cccc2ccccc12
T/C (dose: 25.0 mg/kg/injection, schedule: Q01DX009 (ip), vehicle: Klucel (hydroxypropylcellulose) (HPC)): 109 % of control and 113 % of control | T/C (dose: 35.0 mg/kg/injection, schedule: Q01DX009 (ip), vehicle: Klucel (hydroxypropylcellulose) (HPC)): 103 % of control | T/C [11]: 107 % of control | T/C [13]: 100 % of control | T/C [8]: 110 % of control

C=CN1CCCC1=O
T/C (dose: 100.0 mg/kg/injection, schedule: Q01DX001 (ip), vehicle: saline): 100 % of control | T/C [15]: 90 % of control | T/C (dose: 200.0 mg/kg/injection, schedule: Q01DX001 (ip), vehicle: saline): 95 % of control | T/C [18]: 118 % of control | T/C (dose: 400.0 mg/kg/injection, schedule: Q01DX001 (ip), vehicle: saline): 100 % of control | T/C (dose: 400.0 mg/kg/injection, schedule: Q01DX009 (ip), vehicle: saline): 122 % of control

Cc1ccc(C)c2c1CCCC2=O
T/C [1]: 86 % of control | T/C [2]: 90 % of control | T/C [3]: 100 % of control | T/C [20]: 86 % of control

COc1ccc2nc3cc(Cl)ccc3c(NCCO)c2c1
T/C (dose: 37.5 mg/kg/injection, schedule: Q01DX010 (ip), vehicle: saline): 100 % of control | T/C (dose: 75.0 mg/kg/injection, schedule: Q01DX010 (ip), vehicle: saline): 100 % of control | T/C (dose: 150.0 mg/kg/injection, schedule: Q01DX010 (ip), vehicle: saline): 100 % of control
